From US20140170159A9, “Conditionally active anti-epidermal growth factor receptor antibodies and methods of use thereof” (priority 2012, published 2014)
Marks after values point to notes of the source that are not given here.

Experiments:
A431 xenograft tumors [1] = assay: A431 xenograft tumor growth, Cetuximab and cisplatin combination; type: in vivo, male nude mice; settings: day 14
Experimental: Specifically, the test article(s) were administered on days 0, 4, 7, 11, and 14.
Tumor growth, measured as tumor volume (mm^3), was determined on days—1, 4, 7, 11 and 14 using digital calipers and calculation as described in Example 8. Tumor growth inhibition (TGI) for the treatment groups was calculated using the formula: % TGI=[1−(TB−TA)/(CB−CA)]×100; where TB is the average tumor volume (mm^3) in the treatment group at day 14, TA is the average tumor volume (mm^3) in the treatment group the day before the first treatment (day—1), CB is the average tumor volume in the vehicle only control group at day 14, and CA is the average tumor volume in the vehicle only control group the day before the first treatment (day—1) (see, e.g., Teicher B A and Andrews P A: Anticancer Drug Development, Guide: Preclinical Screening, Clinical Trials and Approval, 2nd edition.

A431 xenograft tumors [2] = assay: A431 xenograft tumor growth, Cetuximab vs. HC-Y104D and cisplatin; type: in vivo, male nude mice; settings: 5 mg/kg cisplatin IV twice per week, day 14
Experimental: Subcutaneous A431 xenograft tumors were established in male nude mice as described above. […] Specifically, the test article(s) were administered on days 0, 4, 7 and 11. Tumor volume (mm^3) was determined on days—1, 4, 7, 11 and 14 as described previously.

N.N.[Cl][Pt][Cl] [cisplatin]
tumor growth inhibition (TGI) (A431 xenograft tumors [1]; 5 mg/kg cisplatin alone): 34.2% | % Tumor Growth Inhibition (A431 xenograft tumors [1]; Cisplatin 5 mg/kg ([…]) IV twice per week): 34.2* % | % Tumor Growth Inhibition (A431 xenograft tumors [1]; Cisplatin […] (0.04 mg/mouse) IV twice per week): 16.7% | reduction in tumor growth (A431 xenograft tumors [2]): about 45%
